PMC7503767, “Alkoxyamines Designed as Potential Drugs against Plasmodium and Schistosoma Parasites” (Molecules, 2020)
Like-named read-outs stand apart in the source and are kept apart here. Marks after values point to notes of the source that are not given here.

Columns and labels:
Adult S. mansoni = assay: In vitro antischistosomal activity on adult worms; type: cell-based, Schistosoma mansoni; settings: for Time for the death of 100% worms / S. mansoni Mean Survival Time: adult S. mansoni, observation up to 8 h; for S. mansoni Mean Survival Time: single dose 100 µg/mL
Summary of the method: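 NMRI-strain adult worms, perfused from hamsters 42–47 days post-infection, held in RPMI 1640 (25 mM Hepes) with Tween 80/DMSO vehicle at 37 °C, 5% CO2 and exposed to 100 µg/mL drug, in duplicate. Moving worms counted hourly up to 8 h; no contraction over 30 s scored dead. Mean survival time from Kaplan–Meier analysis.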

[1] = tested on: P. falciparum F32-TEM (artemisinin-sensitive strain); assay: Standard chemosensitivity assay (SYBR Green I), F32-TEM; type: cell-based, Plasmodium falciparum; settings: Plasmodium falciparum
Experimental: (§1) F32-ART5, an artemisinin-resistant strain and F32-TEM, an artemisinin-sensitive strain, were obtained from the parental clone F32-Tanzania, respectively under regular drug pressure cycles of increasing artemisinin concentrations for 5 years and without any artemisinin pressure. After these drug pressure cycles allowing selection of the F32-ART5 strain, regular drug pressures were performed to maintain its phenotype. […] Briefly, parasites were cultured in RPMI 1640 (Fisher Scientific, Waltham, Illkirch-Graffenstaden, France) supplemented with 5% type AB human serum (Etablissement français du Sang, Toulouse, France) and adjusted at a parasitemia of 1% and 2% hematocrit with type O human at 37 °C and 5% CO2. Parasite development was daily monitored by Giemsa staining.
(§2) Briefly, for the determination of IC50 values, the chemosensitivity assay was carried out in 96-well culture plates on D-sorbitol ring-stage synchronized parasites and antiplasmodial activities were evaluated using the SYBR Green I method. Drug testing was performed in triplicates in a dose range of 5 to 7 concentrations. […] Parasites were left to proliferate with the given compounds for 48 h at 37 °C and 5% CO2. After this period, pellets were washed 3 times in sterile PBS prior to putting the plates at −20 °C overnight to lyse all red blood cells. The following day, the plates were thawed at room temperature, 100 µL of each well was transferred into a black 96-well plate to which another 100 µL of 2× PBS-diluted SYBR Green I (Sigma-Aldrich) was added and left to incubate for 2 h at room temperature prior to reading the plates on BioTek FL× 800 Microplate Fluorescence Reader (λexcitation = 485 nm, λemission = 528 nm).
(§3) IC50 values were determined using GraphPad Prism by drawing the curve % inhibition vs. [Drug] and using a four-parameter dose–response curve with the following equation: Y=Bottom+ Top−Bottom/1+x^Hill Slope/IC50Hill Slope

[2] = tested on: P. falciparum F32-ART5 (artemisinin-resistant strain); assay: Standard chemosensitivity assay (SYBR Green I), F32-ART5; type: cell-based, Plasmodium falciparum; settings: Plasmodium falciparum, F32, 48 h, read-out: P. falciparum Strains Mean IC50, F32-ART5, 48 h; ^1 n = 1, ^2 n = 2
Experimental: as §1, §2, §3

[3] = tested on: P. falciparum chloroquine-resistant strain FcB1-Columbia; assay: Antiplasmodial screen at 10 µM and chemosensitivity assay (SYBR Green I), FcB1-Columbia; type: cell-based, Plasmodium falciparum
Cytotoxicity assay (MTT) = settings: African green monkey
Experimental: (§4) Vero cells were cultured in MEM (Dutscher, Brumath, France) supplemented with 10% fetal bovine serum, 1× non-essential amino acids, 100 U/mL, 100 µg/mL penicillin/streptomycin, and 2 mM L-glutamine at 37 °C in a humidified 5% CO2 atmosphere. […] At this time, each well was microscope-examined for detection of possible precipitate formation prior to remove the supernatant by flicking the plate. 100 µL of a 0.5 mg/mL PBS-dissolved MTT tetrazolium (stock solution at 5 mg/mL) was then added to each well [48]. The plates were then incubated for 1 h at 37 °C and 5% CO2 prior to removing the supernatant and adding 100 µL of DMSO. Plates were gently shaken to dissolve formazan crystals resulting from the MTT tetrazolium reduction by living cells and read at 570 nm with BioTek µQuant Microplate Spectrophotometer.

Vero cells = assay: Cytotoxicity assay (MTT); settings: ratio cytotoxicity (Vero)/activity on Plasmodium
Experimental: as §4

[4] = Homolysis of the NO–C bond measured by EPR
Experimental: Homolysis rate constants kd’ were measured by EPR and estimated using Equation (1) as reported many times in the literature. Further, Ea and kd were estimated using Equation (2). (1) ln([nitroxide]∞−[nitroxide]t/[nitroxide]∞)=−kd·t (2) Ea=−RT ln([…] kd′ )

[5] = parameters: method as in PMID 23051106, doi:10.1039/c2py20447a; settings: cited from earlier work
[6] = tested on: P. falciparum F32-ART5 (artemisinin-resistant); assay: Recrudescence assay, F32-ART5; type: cell-based, Plasmodium falciparum; settings: artemisinin 18 µM, (RS/SR)-2F 5 µM; for Median (Range) Recrudescence Time, F32-ART5: 48 h treatment, followed 30 days
Experimental: (§5) The lead compound, (RS/SR)-2F, was tested in a recrudescence assay, to assess cross-resistance with artemisinin, according to Ménard et al.. Briefly, F32-TEM and F32-ART5 parasites were synchronized at ring-stage by D-sorbitol treatment prior to treating them with the drug of interest for 48 h, then washed and allowed to grow in drug-free medium. Parasitemia was monitored every other day for 30 days to determine the day when parasite cultures reached the t0 initial parasitemia. […] Artemisinin was used as control to confirm differences in recrudescence times between both strains. Three independent experiments were performed for (RS/SR)-2F and artemisinin tested in parallel.

[7] = tested on: P. falciparum F32-TEM (artemisinin-sensitive); assay: Recrudescence assay, F32-TEM; type: cell-based, Plasmodium falciparum; settings: 48 h treatment; artemisinin 18 µM, (RS/SR)-2F 5 µM; followed 30 days
Experimental: as §5

[8] = F32, 48 h, read-out: P. falciparum Strains Mean IC50, F32-TEM, 48 h, ^1 n = 1, ^2 n = 2
[9] = Plasmodium falciparum, FcB1-Columbia strain, read-out: IC50 on P. falciparum
[10] = Cytotoxicity Mean IC50, Vero cell lines, 48 h, MTT
[11] = read-out: IC50 on P. falciparum, FcB1-Columbia strain

SMILES | Time for the death of 100% worms (Adult S. mansoni; 100 µg/mL) | S. mansoni Mean Survival Time (Adult S. mansoni) | IC50 [1, 8] | IC50 [2] | IC50 [3, 9] | IC50 at 48 h (Cytotoxicity assay (MTT); Vero cells) | Selectivity Index (Vero cells) | activation energy Ea ([4]; t-BuPh) | re-estimated homolysis rate constant kd at 120 °C ([4]; t-BuPh) | IC50 at 48 h (Cytotoxicity assay (MTT); [10]) | T1/2 in vitro at 37 °C ([5]; aqueous medium) | T1/2 in vitro at 37 °C ([5]; tert-butylbenzene) | IC50 [3, 11] | Median (Range) Recrudescence Time, F32-ART5 [6] | Median (Range) Recrudescence Time, F32-TEM [7] | other results
CC(ON1C(C)(C)CC(O)CC1(C)C)c1cc(-c2ccccn2)nc(-c2ccccn2)c1 (racemic) [(R/S)-8F, 1-(1-([2,2′:6′,2′′-Terpyridin]-4′-yl)ethoxy)-2,2,6,6-tetramethylpiperidin-4-ol] | 5 h | 5.0 ± 0.0 h | 1300 nM | 1100 nM | 140 nM | 700 ± 400 nM | 0.5 | 133.3 ^k kJ/mol | 0.46 10^−3 s^−1 |  |  |  |  |  |  | IC50 ([1]; F32, read-out: IC50 on the F32 strains, F32-TEM and F32-ART5 taken together): ~1000 nM; homolysis rate constant kd′ ([4]; t-BuPh, 111 °C): 1.9 10^−4s^−1; half-life ([4]; tert-butylbenzene, half-lifetime t1/2 at 37 °C, t-BuPh): 941 days; half-life ([4]; tert-butylbenzene, t1/2 at 37 °C): 913 days
CCOP(=O)(OCC)[C@@H](N(O[C@H](C)c1ccncc1)C(C)(C)C)C(C)(C)C (relative stereo) [(RR/SS)-1a] | > 8 h | >8 h | 15000 nM | 16000 nM |  |  | 1 |  |  | 17000 ± 7000 nM | 48 to 96 h | 408 h |  |  |  | Mean (±SD) survival time – Adult S. mansoni (Adult S. mansoni; 100 µg/mL, observation up to 8 h (Table S1)): > 8 h
CCOP(=O)(OCC)[C@@H](N(O[C@@H](C)c1ccncc1)C(C)(C)C)C(C)(C)C (relative stereo) [(RS/SR)-1a] |  | 1.2 ± 0.1 h | 7600 nM | 11000 nM |  |  | 3 |  |  | 28000 ± 29000 nM | 48 to 96 h | 408 h | > 3000 nM |  |  | IC50 ([3]; Plasmodium falciparum, FCB1, read-out: IC50 on P. falciparum, FcB1-Columbia strain): 3800 nM
CCOP(=O)(OCC)C(N(OC(C)c1cc(-c2ccccn2)nc(-c2ccccn2)c1)C(C)(C)CO)C(C)(C)C (stereo not drawn) [(RS/SR)-2F, Diethyl(1-((1-([2,2′:6′,2′′-terpyridin]-4′-yl)ethoxy)(1-hydroxy-2-methylpropan-2-yl)amino)-2,2-dimethylpropyl)phosphonate] |  | 2.1 ± 0.1 h | 600 ± 100 nM | 500 ± 100 nM |  |  | 1 | 119.7 kJ/mol | 29.9 10^−3 s^−1 | 800 ± 300 nM |  |  | 300 nM | 16 (15–17) Days | > 30 days | activation energy Ea ([4]; MeOH/water 1:1 pH = 7.4): 118.2 kJ/mol; re-estimated homolysis rate constant kd at 120 °C ([4]; MeOH/water 1:1 pH = 7.4): 46.7 10^−3 s^−1; half-lifetime t1/2 at 37 °C ([4]; MeOH/water 1:1 pH = 7.4 (aqueous medium)): 64.8 h; homolysis rate constant kd′ ([4]; MeOH/water 1:1 pH = 7.4, 81 °C): 8.7 10^−4s^−1; half-life ([4]; buffer, pH 7.4, half-lifetime t1/2 at 37 °C, MeOH/water 1:1 pH = 7.4 (aqueous medium)): 2 to 4 days; half-life ([4]; half-lifetime t1/2 at 37 °C, t-BuPh): 3 to 5 days; half-lifetime t1/2 at 37 °C ([4]; t-BuPh): 115 h; homolysis rate constant kd′ ([4]; t-BuPh, 81 °C): 5.3 10^−4s^−1
C[C@@H]1CC[C@H]2[C@@H](C)C(=O)O[C@@H]3O[C@@]4(C)CC[C@@H]1[C@]32OO4 [Artemisinin, reference compound] |  |  | 20 ± 1 nM | 20 ± 2 nM | 40 ± 7 nM | 160000 ± 12000 nM | 8000 |  |  |  |  |  |  | 9 (7–11) Days | > 30 (16→30) Days | Mean ± SEM Difference of Recrudescence Time ([6]; F32-TEM versus F32-ART5): > 16.3 ± 3.7 days
